Assay results taken from PubChem BioAssay (NCI).
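In this assay, cells in 96-well plates receive the compound at five concentrations for 48 hours. Endpoints are linearly interpolated between the surrounding concentrations. The concentration for 50% growth inhibition is given as GI50. TGI marks complete inhibition of growth.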 Where a SMILES comes first, the peptide text is derived from it. The star is where a group is joined. Cbz = O=C(OCc1ccccc1)*; NHNH2 = NN*

Legend:
Test in all cases: NCI anticancer screen, dose series, 48 h
[1] = test system: PC-3 prostate
[2] = test system: OVCAR-4 ovarian
[3] = test system: TK-10 renal
[4] = test system: HOP-92 NSCLC
[5] = test system: 786-0 renal
[6] = test system: SK-MEL-5 melanoma
[7] = test system: HS 578T breast
[8] = test system: SK-MEL-2 melanoma
[9] = test system: RPMI-8226 leukemia
[10] = test system: A498 renal

SMILES | TGI [1] [µM] | TGI [2] [µM] | TGI [3] [µM] | TGI [4] [µM] | TGI [5] [µM] | TGI [6] [µM] | TGI [7] [µM] | TGI [8] [µM] | TGI [9] [µM] | GI50 [2] [µM] | TGI [10] [µM]
O=C(Cc1ccc([N+](=O)[O-])cc1)OCC#CCOC(=O)Cc1ccc([N+](=O)[O-])cc1 | > 10 | > 10 | > 10 | > 10 | > 10 | > 10 | > 10 | > 10 | – | – | –
NC(=O)c1cc2ccccc2o/c1=N/O | > 100 | – | > 100 | > 100 | > 100 | > 100 | 91.6 | > 100 | > 100 | – | –
Nc1ccc(S(=O)(=O)Nc2nc3ccccc3nc2N2CCCCC2)cc1 | > 100 | 87.7 | > 100 | > 100 | > 100 | > 100 | > 100 | > 100 | > 100 | – | –
Nc1ccc2[nH]c(-c3cccc(Cl)c3)cc(=O)c2c1 | > 100 | > 100 | 8.55 | 9.69 | > 100 | > 100 | > 100 | – | – | > 100 | –
COC(=O)/C=C/c1cc(OC)c(OC)c(OC)c1 | – | > 100 | > 100 | > 100 | > 100 | > 100 | – | > 100 | – | – | –
O=C(O)C(CO)NC(=O)n1c2ccccc2c2ccccc21 (centres undefined) | – | – | > 100 | > 100 | > 100 | > 100 | – | > 100 | > 100 | – | –
COc1ccc(Nc2nc3c([nH]2)c(=O)n(C)c(=O)n3C)cc1 | > 10 | > 10 | > 10 | > 10 | > 10 | > 10 | – | – | > 10 | – | –
FC(F)(F)c1ccc2nc3n(c2c1)C(c1c(Cl)cccc1Cl)SC3 (centres undefined) | 31.5 | 30.5 | 35.4 | 17.7 | 28.4 | – | 68.9 | 42.3 | – | – | 34.8
O=C(N/N=C/c1cc(Br)cc(Br)c1[O-])c1ccccc1O.O=C(N/N=C/c1cc(Br)cc(Br)c1[O-])c1ccccc1O.[Fe+2] | – | 18.4 | 28.5 | 6.89 | – | 23.4 | – | 21.4 | – | – | –
CCOn1c(C2(CC3CCN(C(=O)c4ccccc4)CC3)OCCO2)cc2ccccc21 | 26 | 29.9 | 24.7 | 23.5 | 30 | 24.6 | – | 32.2 | 28.1 | – | 26.1
CN(C)CCn1c(=O)c2ccc(NCCCN(C)CCCNc3ccc4c(=O)n(CCN(C)C)c(=O)n5c6ccc([N+](=O)[O-])cc6c(=O)c3c45)c3c(=O)c4cc([N+](=O)[O-])ccc4n(c1=O)c23 | 0.293 | 0.0944 | 1.52 | 0.198 | 0.385 | 0.311 | – | – | – | – | 0.398
NC(=O)C(=CNC(=S)c1ccncc1)C(N)=O | > 100 | > 100 | > 100 | > 100 | > 100 | > 100 | > 100 | > 100 | > 100 | – | –
Cc1nc(C)c(Cc2ccccc2)o1 | > 100 | > 100 | > 100 | – | > 100 | > 100 | > 100 | – | – | – | > 100
NC(N)=Nc1ncccc1[N+](=O)[O-] | – | > 100 | – | > 100 | – | > 100 | – | > 100 | > 100 | – | > 100
C=CCOCCCCC(C(C)=O)C(=O)OC (centres undefined) | – | > 100 | > 100 | > 100 | > 100 | > 100 | – | > 100 | > 100 | – | > 100
COc1ccc2cc(NC(=O)N/N=C\c3ccc(Cl)cc3)ccc2c1 | > 100 | > 100 | > 100 | > 100 | > 100 | – | 68.8 | > 100 | > 100 | – | –
Cn1c2ccccc2n2c(=O)c3cc([N+](=O)[O-])ccc3c(C#N)c12 | > 100 | > 100 | > 100 | – | > 100 | > 100 | > 100 | > 100 | > 100 | – | –
COC(=O)CC(NC(=O)OCc1ccccc1)C(=O)NC(CC(=O)OC)C(=O)NC(CC(=O)OC)C(=O)NC(CC(=O)OC)C(=O)NC(CC(=O)OC)C(=O)NC(CC(=O)OC)C(=O)NN (centres undefined) (Cbz-D(OMe)D(OMe)D(OMe)D(OMe)D(OMe)D(OMe)-NHNH2; configuration not given here) | > 100 | > 100 | > 100 | > 100 | > 100 | > 100 | > 100 | > 100 | > 100 | – | –

SMILES | TGI [1] [µM] | TGI [2] [µM] | TGI [3] [µM] | TGI [4] [µM] | TGI [5] [µM] | TGI [6] [µM] | TGI [7] [µM] | TGI [8] [µM] | TGI [9] [µM] | GI50 [2] [µM] | TGI [10] [µM]
Nc1c(C(=O)c2ccc(Cl)cc2)[nH]c(NCc2ccccc2)c1C(=S)Nc1ccccc1 | 18.4 | 4.15 | 4.25 | 9.02 | 3.14 | – | – | 3.58 | 4.34 | – | 23
O=c1[nH]nc(-c2ccccc2)c2[nH]c(-c3ccccc3)cc12 | – | > 100 | – | > 100 | > 100 | – | > 100 | – | > 100 | – | –
Cc1cn(C(C)OCCN2C(=O)c3ccccc3C2=O)c(=O)[nH]c1=O (centres undefined) | > 100 | > 100 | – | > 100 | > 100 | > 100 | – | > 100 | > 100 | – | > 100
COc1c(Br)cc(CC(N)=O)c(O)c1Br | – | > 100 | > 100 | > 100 | – | > 100 | – | > 100 | – | – | > 100
CSc1nc2c(c(=O)n1C)N=C(c1ccccc1)[C@H](C(CC(=O)c1ccccc1)c1ccccc1)C(c1ccccc1)N2 (some centres undefined) | > 100 | > 100 | – | > 100 | > 100 | > 100 | – | > 100 | > 100 | – | > 100
Brc1cc2nn(-c3ccccc3)nc2c2nonc12 | > 100 | > 100 | > 100 | > 100 | > 100 | > 100 | > 100 | > 100 | > 100 | – | –
COC(=O)C1=Nc2c(C)nn(-c3ccccc3)c2N=C(c2ccc([N+](=O)[O-])cc2)C1 | > 10 | > 10 | > 10 | > 10 | > 10 | > 10 | > 10 | – | > 10 | – | –
CNC(=O)N(CCC#N)[C@H]1CCCC[C@@H]1N(C(=O)NC)c1ccccc1 | > 100 | > 100 | > 100 | > 100 | > 100 | > 100 | – | > 100 | > 100 | – | –
O=c1oc2cc(O)ccc2c(O)c1C(c1ccc(C(c2c(O)c3ccc(O)cc3oc2=O)c2c(O)c3ccc(O)cc3oc2=O)cc1)c1c(O)c2ccc(O)cc2oc1=O | > 100 | > 100 | > 100 | > 100 | – | > 100 | > 100 | > 100 | – | – | > 100
CC1(C)OCC2OC3([C@H]4OC(C)(C)O[C@@H]4CO)OC(C)(C)OC3C2O1 (some centres undefined) | > 100 | > 100 | – | > 100 | > 100 | > 100 | – | > 100 | > 100 | – | > 100
COc1ccc2c(c1)CC1=C(O2)c2ccc(OC)cc2OC1 | 57 | 90.1 | 46.3 | – | 50.8 | 42.4 | – | 81.6 | > 100 | – | > 100
COC(=O)C1CC2(c3ccccc3)C(=O)c3ccccc3N2O1 (centres undefined) | – | > 100 | > 100 | > 100 | > 100 | > 100 | – | > 100 | 57 | – | > 100
O=[N+]([O-])c1ccc(-c2ccc(-c3csc(Nc4ccccn4)n3)o2)cc1 | – | 50 | 56.1 | > 100 | – | – | – | > 100 | > 100 | – | –
O=C(O)C(CS)N=c1c2ccccc2n(O)c2ccccc12 (centres undefined) | – | > 100 | > 100 | – | > 100 | > 100 | – | > 100 | > 100 | – | > 100
COc1ccc2c(c1)CN1C(=N2)CSC1c1ccccc1Cl (centres undefined) | 70.5 | 45.1 | 68 | 31.2 | 34.5 | 28.5 | 82.5 | 37.3 | 29.9 | – | –
O=C1C=CC(=O)c2c(O)c(NCCc3ccc(O)cc3)c(Cl)c(O)c21 | > 10 | > 10 | > 10 | > 10 | > 10 | > 10 | – | > 10 | > 10 | – | –
C=C1CC(C)(c2ccc(Nc3nc4ccccc4c4occc34)cc2)OC1=O (centres undefined) | 20 | 7.73 | 16.7 | 12.6 | 3.79 | 19.6 | – | – | 4.47 | – | 33.8
O=c1c2ccccc2nc(Nc2cccc(Cl)c2)n1/N=C/C=C/c1ccccc1 | 97.4 | > 100 | > 100 | > 100 | > 100 | > 100 | > 100 | > 100 | > 100 | – | –
